Counter-ions that a name gives are not always drawn.

Assay type in all cases: cell-based, human
One assay deals with CD31+ cells. The experiment in a line: Shh and Notch signaling modulators, arterial and venous marker expression in CD31+ cells. As to conditions: for expression of arterial marker EphB2: cyclopamine 5 μM and Notch inhibitor L685458 1 μM together; for expression of arterial EC markers EphB2 (protein level), HEY-2, JAG-1 and EFNB1 (gene level) / expression of venous EC markers Lefty-1 and Lefty-2: purmorphamine 1 μM and DLL4 100 ng/mL together, versus cells without activators. The procedure: hESC culture and differentiation. Undifferentiated hESCs (passages 33-36; H9, WiCell, Wisconsin) or hiPSCs K2 (passages 32-35; cord blood derived iPSCs kindly donated by Ulrich Martin) were grown on an inactivated mouse embryonic fibroblast (MEF) feeder layer, as previously described 1, 2. To induce the formation of EBs, the undifferentiated hESCs were treated with 2 mg/mL type IV collagenase (Invitrogen) for 2 h and then transferred (2:1) to low attachment plates (Corning) containing 10 mL of differentiation medium [80% KO-DMEM, 20% fetal bovine serum (FBS, Invitrogen), 0.5% L-glutamine, 0.2% β-mercaptoethanol, 1% nonessential amino acids]. The differentiation medium was supplemented with VEGF165 (50 ng/mL, Prepotech), Tβ4 (100 ng/mL, Caslo) and SB431542 (10 μM, Tocris) according to the following timeline: [(VEGF165)days0-18+(Tβ4)days4-18+(SB431542)days7-18]. After 4 days in suspension, EBs were plated onto 1% gelatin-coated dishes and grown for 14 additional days. Medium was changed every 2-3 days. To evaluate the contribution of Shh and Notch signaling pathways, the differentiation medium was supplemented with one or two of the following agents: 1 μM purmorphamine (Shh activator; Cayman Chemical), 5 μM cyclopamine (Shh inhibitor; Sigma), 100 ng/ml DLL-4 (Notch activator; Prepotech), or 1 μM Y^−-secretase inhibitor L685458 (Notch inhibitor; Tocris Biosciences) 47.
Arterial and venous gene expression was analyzed in CD31^+ cells at the time of their isolation. […] Because arterial/vein specification during mouse embryogenesis is in large part mediated by Notch and Sonic Hedgehog (Shh), the expression of Notch (Notch1, Notch2, Notch3, Notch4) and Shh (patched 1) receptors as well as Notch (DLL1, DLL3, DLL4, JAG-1, JAG-2) and Shh transcription factors (GLI1 and SMO) in CD31^+ cells was assessed (FIG. 1E). […] Was also studied the involvement of Notch and Shh signaling pathways in the gene expression of arterial and venous markers in cells after CD31^+ cell isolation. The independent activation of each signaling pathway has little impact in the expression of arterial marker EphB2 (FIG. 1F).

Assay [1] deals with hESC-derived ECs versus HUAECs. The experiment in a line: High-throughput screening of LOPAC library, PrestoBlue cell viability, hESC-derived ECs versus HUAECs. As to conditions: LOPAC screen, 4.5 μM, 4 days, PrestoBlue assay. The procedure:
(§1) High-throughput screening (HTS). HUAECS (Lonza) and hESC-derived ECs were cultured in EGM-2 medium while human anterior cruciate ligament cells (ACL cells) were cultured in Dulbecco's modified Eagle's medium (DMEM; PAA) supplemented with 10% FBS, 0.2 mM ascorbic acid 2-phosphate magnesium salt (Sigma Aldrich), […] streptomycin and 100 U/mL penicillin (Life Technologies). ACL cells were isolated from patients that have signed an informed consent form, in compliance with the Dutch legislation. The ethical committee of Medisch Spectrum Twente Hospital approved the collection.
(§2) The LOPAC library (Sigma-Aldrich) was used to screen embryonic endothelial-specific cytotoxic compounds. The compounds were solubilized in DMSO. The final compound concentration used in the screen was 4.5 μM in a final volume of 200 μL per well (96-well plate). HUAECs, hESC-derived EC and ACL cells were seeded at 16,000 cells/well (HUAECs and hESC-derived ECs) and 5,000 cells/well (ACL cells) and allowed to reach near confluence (approximately two days). After two days, medium was exchanged and test compounds and controls were added to the 96-well plates (all wells contained 0.25% (v/v) DMSO). After 4 days of incubation, cell viability was assessed using a PrestoBlue (Invitrogen) assay. This assay is based on a resazurin-based solution that indicates the reducing power of living cells and therefore measures indirectly their number. For each measurement, cell medium was removed and the PrestoBlue solution (10%) was added for 3 h at 37° C. upon which the absorbance was measured at 560-590 nm.
(§3) Disruption of vascular development has been directly correlated with prenatal loss, malformations and neurodevelopmental problems^41-44. […] The library was screened at a single dosage of 4.5 μM in a volume of 200 μL per well of EGM-2 medium, containing 0.25% DMSO (v/v). […] Six compounds (danazol, chlorpromazine hydrochloride, ellipticine, 3′,4′-dichlorobenzamil, fluphenazine dihydrochloride and 7-cyclopentyl-5-(4-phenoxy)phenyl-7H-pyrrolo[2,3-d]pyrimidin-4-ylamine) affected cell viability in both cells by a difference of 20% (FIG. 4B). The six compounds belong to different classes: cell cycle, ion pumps, dopamine pathway, phosphorylation and hormone signaling. The compounds selected from the primary screen were then tested against hESC-derived ECs and HUAECs at eight different concentrations to obtain a dose-response curve (FIG. 4C and FIG. 14).

Assay [2] has as its system hESC-derived ECs versus ACL cells. The experiment in a line: High-throughput screening of LOPAC library, PrestoBlue cell viability, hESC-derived ECs versus ACL cells. As to conditions: LOPAC screen, 4.5 μM, 4 days of incubation, PrestoBlue assay. How it is done:
as §1, §2, §3

`CC1=C2C[C@H]3[C@@H](CC=C4C[C@@H](O)CC[C@@]43C)[C@@H]2CC[C@]12O[C@@H]1C[C@H](C)CN[C@H]1[C@H]2C` [cyclopamine]: the “expression of arterial marker EphB2” value in the assay on CD31+ cells is recorded as “significantly decreased”.
As for `N/C(=N\C(=O)c1nc(Cl)c(N)nc1N)NCc1ccc(Cl)c(Cl)c1` [3′,4′-Dichlorobenzamil], in assay [1], the “difference in cell viability between hESC-derived ECs and HUAECs” value is recorded as 20%. In addition, the “Differences (%) in cell viability (hESC-Derived ECs versus ACL cells)” value (“Differences (%) in cell viability” for short) in assay [2] turned out to be 54.2%.
In the case of `c1ccc2c(Oc3nc(Nc4ccc(N5CCOCC5)cc4)c4ncn(C5CCCCC5)c4n3)cccc2c1` [purmorphamine], in the assay with CD31+ cells, the “expression of arterial EC markers EphB2 (protein level), HEY-2, JAG-1 and EFNB1 (gene level)” value is “significantly increased”; the “expression of venous EC markers Lefty-1 and Lefty-2” value is on record as “decreased”.
With `C#C[C@]1(O)CC[C@H]2[C@@H]3CCC4=Cc5oncc5C[C@]4(C)[C@H]3CC[C@@]21C` [Danazol], the “difference in cell viability between hESC-derived ECs and HUAECs” value in assay [1] worked out at 20%. Further, the “Differences (%) in cell viability” value in assay [2] was 52.7%.
As for `CN(C)CCCN1c2ccccc2Sc2ccc(Cl)cc21` [Chlorpromazine hydrochloride], in assay [1], the “difference in cell viability between hESC-derived ECs and HUAECs” value is reported as 20%. Further, the “Differences (%) in cell viability” value in assay [2] turned out to be 57.2%.
Consider `OCCN1CCN(CCCN2c3ccccc3Sc3ccc(C(F)(F)F)cc32)CC1` [Fluphenazine dihydrochloride], for which the “difference in cell viability between hESC-derived ECs and HUAECs” value in assay [1] is reported as 20%. Moreover, in assay [2], the “Differences (%) in cell viability” value worked out at 51.4%.
On to DLL4: Notch activator, for which, in the assay with CD31+ cells, the “expression of arterial EC markers EphB2 (protein level), HEY-2, JAG-1 and EFNB1 (gene level)” value is recorded as “significantly increased”; the “expression of venous EC markers Lefty-1 and Lefty-2” value was “decreased”.
Turning to `Cc1c2ccncc2c(C)c2c1[nH]c1ccccc12` [Ellipticine], in assay [1], the “difference in cell viability between hESC-derived ECs and HUAECs” value was determined as 20%. For the same molecule, the “Differences (%) in cell viability” value in assay [2] worked out at 58.5%.
Turning to `[N-]=[N+]=Nc1ccc(C(=O)CSC[C@H](NC(=O)CC[C@H](N)C(=O)O)C(=O)NCC(=O)O)cc1` [S-(p-Azidophenacyl)glutathione], the “Differences (%) in cell viability” value in assay [2] worked out at 61.3%.
Regarding `CC(C)C[C@H](NC(=O)[C@H](Cc1ccccc1)C[C@@H](O)[C@H](Cc1ccccc1)NC(=O)OC(C)(C)C)C(=O)N[C@@H](Cc1ccccc1)C(N)=O` [L685458], the “expression of arterial marker EphB2” value in the assay on CD31+ cells is reported as “significantly decreased”.
In the case of R-(−)-Fluoxetine hydrochloride, the “Differences (%) in cell viability” value in assay [2] came out at 54.5%.
On the same count and under the same terms, with `CN(C)CC/C=C1/c2ccccc2Sc2ccc(Cl)cc21` [Chlorprothixene hydrochloride] the figure was 58.1%.
On to `Clc1ccc(C(c2ccc(Cl)cc2)n2cc[n+](CC(OCc3ccc(Cl)cc3Cl)c3ccc(Cl)cc3Cl)c2)cc1` (centres unmarked) [Calmidazolium chloride], for which the “Differences (%) in cell viability” value in assay [2] worked out at 96.1%.
For the molecule `CC(C)(C)c1cc(/C=C(\C#N)C(N)=S)cc(C(C)(C)C)c1O` [Tyrphostin AG 879], the “Differences (%) in cell viability” value in assay [2] is listed as 54.4%.
On the same count and under the same terms, with `O=c1[nH]c(=O)n([C@H]2C[C@H](O)[C@@H](CO)O2)cc1Br` [5-Bromo-2′-deoxyuridine] the figure was 53.9%; with `O=C1NCN(c2ccccc2)C12CCN(CCCC(c1ccc(F)cc1)c1ccc(F)cc1)CC2` [Fluspirilene], 86.7%.

For the origin of these results see patent US10526580B2, “Differentiated cell population of endothelial cells derived from human pluripotent stem cells, composition, system, kit and uses thereof” (BIOCANT-ASSOCIAÇÃO DE TRANSFERÊNCIA DE TECNOLOGIA, priority 2012, dated 2020).
